# Reference: publication PMC9014412 (Journal of medicinal chemistry, 2022)
# Columns and labels:
# HDAC2 = HDAC2 (Homo sapiens, UniProt Q92769); assay: HDAC2 degradation by quantitative western blotting in HCT116 cells; details: HCT116 cells, 24 h, 0.1, 1 and 10 μM; compared with 1 at 10 μM
# Description: (§1) Initially, each PROTAC was tested at 0.1, 1, and 10 μM in HCT116 cells for 24 h; then, cell extracts were prepared and evaluated for HDAC1/2 and 3 degradation by quantitative western blotting.
# (§2) This cell line was incubated at 37 °C with 5% CO2.
# (§3) HCT116 cells were seeded into 6-well plates (4 × 10^5 cells/well for 24 h, 2 × 10^5 cells/well for 48 h) for 24 h and then treated with DMSO or compounds at the indicated concentrations in fresh medium (5 mL total). After desired treatment time, the cells were harvested and then lysed in lysis buffer (50 mM Tris-HCl, 150 mM NaCl, 0.5% NP-40, 0.5% Triton X-100) supplemented with a protease inhibitor (Sigma, P8340). The suspension was incubated on ice for 30 min and centrifuged (18,000 rcf, 15 min, 4 °C); then, the supernatant was collected, and protein concentrations were quantified via Bradford Assay using Protein Assay Dye Reagent Concentrate (BIO-RAD). […] PageRuler Plus Prestained Ladder was used for size standards. After gel electrophoresis at 140 V for 90 min, the separated proteins were transferred onto a nitrocellulose membrane at 30 V for 60 min. The membranes were probed with primary antibodies (see the Supporting Information) for 60−90 min. Blots were developed with complimentary IRDye-conjugated secondary antibodies, and the bands were visualized using an Odyssey infrared imaging system. Image processing and band intensity quantification were performed using Image Studio Lite.
# H3K56ac = assay: Histone H3 Lys 56 acetylation (H3K56ac) western blotting; type: cell-based, human; details: HCT116 cells, 24 h, screen at 0.1, 1, 10 μM; relative to DMSO, CI-994 and 1 at 10 μM
# Description: Supporting Information: Biology
# Representative blots of two independent biological replicates.
# HDAC3 = HDAC3 (Homo sapiens, UniProt O15379); assay: HDAC3 degradation by quantitative western blotting in HCT116 cells; details: HCT116 cells, 24 h, 0.1, 1 and 10 μM; compared with 1 at 10 μM
# Chain of HDAC3 (O15379 whole entry): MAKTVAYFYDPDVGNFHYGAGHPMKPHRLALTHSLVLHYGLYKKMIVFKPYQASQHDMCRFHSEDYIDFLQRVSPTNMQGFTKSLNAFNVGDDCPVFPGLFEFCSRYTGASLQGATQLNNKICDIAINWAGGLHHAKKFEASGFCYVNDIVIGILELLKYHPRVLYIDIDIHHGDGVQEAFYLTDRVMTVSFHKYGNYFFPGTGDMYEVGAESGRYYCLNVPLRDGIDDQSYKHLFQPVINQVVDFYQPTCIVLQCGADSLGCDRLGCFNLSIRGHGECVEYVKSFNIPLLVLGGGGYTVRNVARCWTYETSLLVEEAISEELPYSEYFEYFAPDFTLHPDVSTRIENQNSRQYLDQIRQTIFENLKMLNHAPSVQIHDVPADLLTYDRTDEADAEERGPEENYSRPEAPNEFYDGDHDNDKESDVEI
# Chain of HDAC3 (Q9Y618 389-480 partner limits assumed): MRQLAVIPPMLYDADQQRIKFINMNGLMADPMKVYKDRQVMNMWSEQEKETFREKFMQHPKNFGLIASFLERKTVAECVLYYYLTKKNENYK
# Description: as §1, §2, §3
# HDAC1 = HDAC1 (Homo sapiens, UniProt Q13547); assay: HDAC1 degradation by quantitative western blotting in HCT116 cells; details: HCT116 cells; for HDAC1 degradation in initial screen (in words): 24 h, 0.1, 1 and 10 μM, compared with 1 at 10 μM
# Chain of HDAC1 (Q13547 whole entry): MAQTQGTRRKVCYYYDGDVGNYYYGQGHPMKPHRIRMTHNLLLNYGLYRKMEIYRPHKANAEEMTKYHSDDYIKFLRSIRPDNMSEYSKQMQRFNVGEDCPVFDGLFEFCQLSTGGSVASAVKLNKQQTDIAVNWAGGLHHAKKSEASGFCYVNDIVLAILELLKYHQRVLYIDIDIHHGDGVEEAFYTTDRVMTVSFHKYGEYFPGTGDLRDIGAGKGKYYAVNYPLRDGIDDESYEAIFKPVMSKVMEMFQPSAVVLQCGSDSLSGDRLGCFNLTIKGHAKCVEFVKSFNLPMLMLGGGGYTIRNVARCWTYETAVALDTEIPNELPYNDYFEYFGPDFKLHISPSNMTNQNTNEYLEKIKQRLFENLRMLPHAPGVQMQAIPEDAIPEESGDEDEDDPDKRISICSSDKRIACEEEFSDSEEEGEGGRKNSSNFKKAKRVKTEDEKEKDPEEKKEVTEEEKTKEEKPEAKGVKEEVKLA
# Description: as §1, §2, §3
# Chain of HDAC2 (Q92769 whole entry): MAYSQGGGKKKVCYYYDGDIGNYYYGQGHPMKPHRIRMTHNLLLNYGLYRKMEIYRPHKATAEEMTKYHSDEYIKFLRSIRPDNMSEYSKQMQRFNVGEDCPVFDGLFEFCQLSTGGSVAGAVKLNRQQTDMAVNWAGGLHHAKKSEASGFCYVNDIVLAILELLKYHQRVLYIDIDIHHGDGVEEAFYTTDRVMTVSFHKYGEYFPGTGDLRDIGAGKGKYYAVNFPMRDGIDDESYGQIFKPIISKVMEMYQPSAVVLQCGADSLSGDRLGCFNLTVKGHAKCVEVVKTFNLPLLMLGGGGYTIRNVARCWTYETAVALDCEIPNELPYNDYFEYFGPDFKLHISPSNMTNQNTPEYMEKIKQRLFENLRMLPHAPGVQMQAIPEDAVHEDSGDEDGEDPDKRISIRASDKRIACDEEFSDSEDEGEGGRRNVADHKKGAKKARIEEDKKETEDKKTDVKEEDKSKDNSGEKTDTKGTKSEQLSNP
HDAC3 degradation in initial screen (in words) (HDAC3),"DC50 (HDAC1; read-out: DC50 HDAC1, 24 h, quantitative western blotting) [µM]",Compound,HDAC2 degradation in initial screen (in words) (HDAC2),H3K56ac levels (in words) (H3K56ac),HDAC1 degradation in initial screen (in words) (HDAC1)
generally compromised,,"Cc1ncsc1-c1ccc(CNC(=O)[C@@H]2C[C@@H](O)CN2C(=O)[C@@H](NC(=O)COCCOCCOCC(=O)Nc2ccc(C(=O)Nc3ccccc3N)cc2)C(C)(C)C)cc1 [Compound 11, (2S,4R)-1-((S)-14-((4-((2-Aminophenyl)carbamoyl)phenyl)-amino)-2-(tert-butyl)-4,14-dioxo-6,9,12-trioxa-3-azatetradecanoyl)-4-hydroxy-N-(4-(4-methylthiazol-5-yl)benzyl)pyrrolidine-2-carboxamide]",almost complete loss of HDAC1/2 degradation,did not increase H3K56ac levels compared to the dimethyl sulfoxide (DMSO) control,almost complete loss of HDAC1/2 degradation
enhanced HDAC3 degradation compared to 1,,"Cc1ncsc1-c1ccc(CNC(=O)[C@@H]2C[C@@H](O)CN2C(=O)C(NC(=O)CCCCCCCCCCC(=O)Nc2ccc(C(=O)Nc3ccc(F)cc3N)cc2)C(C)(C)C)cc1 (stereo in doubt) [Compound 15, N1-(4-((2-Amino-4-fluorophenyl)carbamoyl)phenyl)-N12-((S)-1-((2S,4R)-4-hydroxy-2-((4-(4-methylthiazol-5-yl)benzyl)carbamoyl)-pyrrolidin-1-yl)-3,3-dimethyl-1-oxobutan-2-yl)dodecanediamide]",,,
,3.51,"Cc1ncsc1-c1ccc(CNC(=O)[C@@H]2C[C@@H](O)CN2C(=O)[C@@H](NC(=O)COCCOCCOCC(=O)Nc2ccc(C(=O)Nc3cc(-c4cccs4)ccc3N)cc2)C(C)(C)C)cc1 [Compound 20, (2S,4R)-1-((S)-14-((4-((2-Amino-5-(thiophen-2-yl)phenyl)-carbamoyl)phenyl)amino)-2-(tert-butyl)-4,14-dioxo-6,9,12-trioxa-3-azatetradecanoyl)-4-hydroxy-N-(4-(4-methylthiazol-5-yl)benzyl)-pyrrolidine-2-carboxamide]",did not result in enhanced degradation potency of HDAC1/2,did increase H3K56ac to levels similar to 1,did not result in enhanced degradation potency of HDAC1/2
only modest HDAC3 degradation at 10 μM,,"Cc1ncsc1-c1ccc(CNC(=O)[C@@H]2C[C@@H](O)CN2C(=O)C(NC(=O)COCCOCCOCC(=O)Nc2ccc(C(=O)Nc3ccc(F)cc3N)cc2)C(C)(C)C)cc1 (stereo in doubt) [Compound 16, (2S,4R)-1-((S)-14-((4-((2-Amino-4-fluorophenyl)carbamoyl)-phenyl)amino)-2-(tert-butyl)-4,14-dioxo-6,9,12-trioxa-3-azatetradecanoyl)-4-hydroxy-N-(4-(4-methylthiazol-5-yl)benzyl)-pyrrolidine-2-carboxamide]",,,

# Second part, the compound before the results:
Compound,HDAC3 degradation in initial screen (in words) (HDAC3),"DC50 (HDAC1; read-out: DC50 HDAC1, 24 h, quantitative western blotting) [µM]",HDAC2 degradation in initial screen (in words) (HDAC2),H3K56ac levels (in words) (H3K56ac),HDAC1 degradation in initial screen (in words) (HDAC1)
"Cc1ncsc1-c1ccc(CNC(=O)[C@@H]2C[C@@H](O)CN2C(=O)[C@@H](NC(=O)CCCN2CCN(CCCC(=O)Nc3ccc(C(=O)Nc4ccccc4N)cc3)CC2)C(C)(C)C)cc1 [Compound 13, (2S,4R)-1-((S)-2-(4-(4-(4-((4-((2-Aminophenyl)carbamoyl)-phenyl)amino)-4-oxobutyl)piperazin-1-yl)butanamido)-3,3-dimethylbutanoyl)-4-hydroxy-N-(4-(4-methylthiazol-5-yl)benzyl)-pyrrolidine-2-carboxamide]",generally compromised,,almost complete loss of HDAC1/2 degradation,did not increase H3K56ac levels compared to the dimethyl sulfoxide (DMSO) control,almost complete loss of HDAC1/2 degradation
"Cc1ncsc1-c1ccc(CNC(=O)[C@@H]2C[C@@H](O)CN2C(=O)[C@@H](NC(=O)COCCCCCCCCCOCC(=O)Nc2ccc(C(=O)Nc3ccc(F)cc3N)cc2)C(C)(C)C)cc1 [Compound 17, (2S,4R)-1-((S)-2-(2-((9-(2-((4-((2-Amino-4-fluorophenyl)-carbamoyl)phenyl)amino)-2-oxoethoxy)nonyl)oxy)acetamido)-3,3-dimethylbutanoyl)-4-hydroxy-N-(4-(4-methylthiazol-5-yl)-benzyl)pyrrolidine-2-carboxamide]",HDAC3 degradation was also enhanced at 1 μM compared to 1,,,greater than twofold increase in H3K56ac compared to the DMSO control,significant HDAC1 degradation was also still observed at 1 μM
"CC(=O)NC(C(=O)N1C[C@H](O)C[C@H]1C(=O)NCc1ccc(-c2scnc2C)cc1OCCCCNC(=O)CCCCCCCC(=O)Nc1ccc(C(=O)Nc2ccccc2N)cc1)C(C)(C)C (stereo in doubt) [Compound 24, N1-(4-(2-(((2S,4R)-1-((S)-2-Acetamido-3,3-dimethylbutanoyl)-4-hydroxypyrrolidine-2-carboxamido)methyl)-5-(4-methylthiazol-5-yl)-phenoxy)butyl)-N9-(4-((2-aminophenyl)carbamoyl)phenyl)-nonanediamide]",,,,did not increase H3K56ac levels greater than the DMSO control,only modest degradation of HDAC1
"Cc1ncsc1-c1ccc(CNC(=O)[C@@H]2C[C@@H](O)CN2C(=O)[C@@H](NC(=O)CCCCCCCCCC(=O)Nc2ccc(C(=O)Nc3ccccc3N)cc2)C(C)(C)C)cc1 [Compound 4, N1-(4-((2-Aminophenyl)carbamoyl)phenyl)-N11-((S)-1-((2S,4R)-4-hydroxy-2-((4-(4-methylthiazol5-yl)benzyl)carbamoyl)pyrrolidin-1-yl)-3,3-dimethyl-1-oxobutan-2-yl)undecanediamide]",,,,increased H3K56ac levels to the same degree as the 12-atom linker 1,directly comparable to those of the 12-atom linker 1
"(2S,4R)-1-((S)-2-(2-((9-((4-((2-Aminophenyl)carbamoyl)phenyl)-amino)-9-oxononyl)oxy)acetamido)-3,3-dimethylbutanoyl)-4-hydroxy-N-(4-(4-methylthiazol-5-yl)benzyl)pyrrolidine-2-carboxamide [Compound 6]",significantly enhanced compared to that of 1,,,increased H3K56ac to comparable or greater levels than CI-994 and 1,
"Cc1ncsc1-c1ccc(CNC(=O)[C@@H]2C[C@@H](O)CN2C(=O)[C@@H](NC(=O)CCCCCCCCCCC(=O)Nc2ccc(C(=O)Nc3cc(-c4cccs4)ccc3N)cc2)C(C)(C)C)cc1 [Compound 19, N1-(4-((2-Amino-5-(thiophen-2-yl)phenyl)carbamoyl)phenyl)-N12-((S)-1-((2S,4R)-4-hydroxy-2-((4-(4-methylthiazol-5-yl)benzyl)-carbamoyl)pyrrolidin-1-yl)-3,3-dimethyl-1-oxobutan-2-yl)-dodecanediamide]",,,did not result in enhanced degradation potency of HDAC1/2,,did not result in enhanced degradation potency of HDAC1/2
"CC(=O)NC(C(=O)N1C[C@H](O)C[C@H]1C(=O)NCc1ccc(-c2scnc2C)cc1OCCCCNC(=O)CCCCC(=O)Nc1ccc(C(=O)Nc2ccccc2N)cc1)C(C)(C)C (stereo in doubt) [Compound 23, N1-(4-(2-(((2S,4R)-1-((S)-2-Acetamido-3,3-dimethylbutanoyl)-4-hydroxypyrrolidine-2-carboxamido)methyl)-5-(4-methylthiazol-5-yl)phenoxy)butyl)-N6-(4-((2-aminophenyl)carbamoyl)phenyl)-adipamide]",,,,did not increase H3K56ac levels greater than the DMSO control,only modest degradation of HDAC1
"Cc1ncsc1-c1ccc(CNC(=O)[C@@H]2C[C@@H](O)CN2C(=O)[C@@H](NC(=O)CCCCCCCC(=O)Nc2ccc(C(=O)Nc3cc(-c4cccs4)ccc3N)cc2)C(C)(C)C)cc1 [Compound 18, N1-(4-((2-Amino-5-(thiophen-2-yl)phenyl)carbamoyl)phenyl)-N9-((S)-1-((2S,4R)-4-hydroxy-2-((4-(4-methylthiazol-5-yl)benzyl)-carbamoyl)pyrrolidin-1-yl)-3,3-dimethyl-1-oxobutan-2-yl)-nonanediamide]",,,did not result in enhanced degradation potency of HDAC1/2,,did not result in enhanced degradation potency of HDAC1/2
"Cc1ncsc1-c1ccc(CNC(=O)[C@@H]2C[C@@H](O)CN2C(=O)[C@@H](NC(=O)COCCCCCCOCC(=O)Nc2ccc(C(=O)Nc3ccccc3N)cc2)C(C)(C)C)cc1 [Compound 8, (2S,4R)-1-((S)-2-(2-((6-(2-((4-((2-Aminophenyl)carbamoyl)-phenyl)amino)-2-oxoethoxy)hexyl)oxy)acetamido)-3,3-dimethylbutanoyl)-4-hydroxy-N-(4-(4-methylthiazol-5-yl)benzyl)pyrrolidine-2-carboxamide]",loss of HDAC3 degradation compared to 6 and 7,,,matched those of CI-994,comparable to that of 1 but not maintained at 1 μM
